# Results published in US20230265151A1, “GIP/GLP1 CO-AGONIST COMPOUNDS” (priority 2020, published 2023).
# Like-named read-outs stand apart in the source and are kept apart here. *1 amine or outer side, *2 acyl side, *3 side chain or, on linkers, in order; H or OH if unused. Where a SMILES comes first, the peptide text is derived from it. Side-chain parts run from the residue outwards. [ ]: non-standard residue; d: D form. The star is where a group is joined. αMePhe(2-F) = C[C@](N)(Cc1ccccc1F)C(=O)O; γGlu = O=C(O)[C@H](CCC(=O)[*:2])N[*:1]; C14 diacid = O=C(O)CCCCCCCCCCCCC(=O)*; αMeY = C[C@](N)(Cc1ccc(O)cc1)C(=O)O; αMeF = C[C@](N)(Cc1ccccc1)C(=O)O; 4Pal = N[C@@H](Cc1ccncc1)C(=O)O; αMeL = CC(C)C[C@](C)(N)C(=O)O; Orn = NCCC[C@H](N)C(=O)O; AEEA = NCCOCCOCC(=O)O; Aib = CC(C)(N)C(=O)O
# Experiments:
# Type in all cases: cell-based
# [1] = target: T1, hGIPR (Homo sapiens, UniProt P48546); experiment: Functional cAMP formation (HTRF) in HEK-293 clonal cells expressing hGIPR, 0.1% bovine casein, without or with 1.0% human serum albumin; conditions: for EC50: geometric mean, read-out: hGIPR EC50, nM (SEM, n); for Emax: read-out: hGIPR Emax, % ± SEM
# T1 construct: expressed in transfected cells
# T1 sequence (P48546 22-466): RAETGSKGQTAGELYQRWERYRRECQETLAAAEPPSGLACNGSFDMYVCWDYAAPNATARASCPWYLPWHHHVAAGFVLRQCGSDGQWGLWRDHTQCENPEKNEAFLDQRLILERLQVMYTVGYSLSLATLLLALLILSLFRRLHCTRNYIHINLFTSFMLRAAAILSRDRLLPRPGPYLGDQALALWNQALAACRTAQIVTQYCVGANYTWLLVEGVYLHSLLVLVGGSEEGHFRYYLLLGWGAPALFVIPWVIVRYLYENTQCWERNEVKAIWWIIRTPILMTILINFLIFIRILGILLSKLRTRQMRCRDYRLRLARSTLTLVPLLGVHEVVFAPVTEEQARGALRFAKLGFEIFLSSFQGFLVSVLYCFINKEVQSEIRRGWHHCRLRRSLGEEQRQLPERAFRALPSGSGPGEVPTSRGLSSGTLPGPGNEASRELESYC
# Summary of the method: (§1)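 Cells were stimulated with peptide for 30 min at 37° C, then lysed in buffer carrying cAMP-d2 and anti-cAMP Eu3+-cryptate for a competitive HTRF read after at least 60 min at room temperature. The 665/620 nm ratio was converted to nM cAMP against a standard curve.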
# [2] = target: T2, hGCGR (Homo sapiens, UniProt P47871); experiment: Functional cAMP formation (HTRF) in HEK-293 clonal cells expressing hGCGR, 0.1% bovine casein, without or with 1.0% human serum albumin; conditions: geometric mean, read-out: hGCGR EC50, nM (SEM, n)
# T2 construct: expressed in transfected cells
# Summary of the method: as §1
# [3] = target: hGLP-1R (Homo sapiens, UniProt P43220); experiment: Functional cAMP formation (HTRF) in HEK-293 clonal cells expressing hGLP-1R, 0.1% bovine casein, without or with 1.0% human serum albumin; parameters: expressed in transfected cells; conditions: for Emax: read-out: hGLP-1R Emax, % ± SEM; for EC50: geometric mean, read-out: hGLP-1R EC50, nM (SEM, n)
# Summary of the method: as §1
# [4] = 0.1% bovine casein and 1.0% human serum albumin, 37° C.
# [5] = HEK293, 0.1% bovine casein and 1.0% human serum albumin, 37° C., percent of maximal response to GIP(1-42)NH2
# [6] = cAMP, 37° C., 0.1% bovine casein (no human serum albumin)
# [7] = HEK293, 0.1% bovine casein and 1.0% human serum albumin, 37° C., percent of maximal response to GLP-1(7-36)NH2
# [8] = HEK293, percent of maximal response to GIP(1-42)NH2, 37° C., 0.1% bovine casein, arithmetic mean
# [9] = cAMP, incubated at 37° C., 0.1% bovine casein (no human serum albumin)
# [10] = HEK293, percent of maximal response to GLP-1(7-36)NH2, 37° C., 0.1% bovine casein, arithmetic mean
# hGLP-1R, sequence (P43220 24-463): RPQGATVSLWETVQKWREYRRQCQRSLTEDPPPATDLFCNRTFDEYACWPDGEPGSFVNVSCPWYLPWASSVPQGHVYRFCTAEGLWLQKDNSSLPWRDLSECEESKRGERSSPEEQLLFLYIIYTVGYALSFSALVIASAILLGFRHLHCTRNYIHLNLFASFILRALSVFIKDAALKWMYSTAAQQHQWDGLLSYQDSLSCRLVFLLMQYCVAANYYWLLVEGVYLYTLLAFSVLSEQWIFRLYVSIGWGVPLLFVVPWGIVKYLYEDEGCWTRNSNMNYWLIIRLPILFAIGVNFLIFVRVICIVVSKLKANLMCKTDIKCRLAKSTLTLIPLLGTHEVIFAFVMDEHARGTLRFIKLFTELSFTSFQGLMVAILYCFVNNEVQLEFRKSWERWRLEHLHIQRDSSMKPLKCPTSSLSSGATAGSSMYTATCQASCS
# T2 sequence (P47871 26-477): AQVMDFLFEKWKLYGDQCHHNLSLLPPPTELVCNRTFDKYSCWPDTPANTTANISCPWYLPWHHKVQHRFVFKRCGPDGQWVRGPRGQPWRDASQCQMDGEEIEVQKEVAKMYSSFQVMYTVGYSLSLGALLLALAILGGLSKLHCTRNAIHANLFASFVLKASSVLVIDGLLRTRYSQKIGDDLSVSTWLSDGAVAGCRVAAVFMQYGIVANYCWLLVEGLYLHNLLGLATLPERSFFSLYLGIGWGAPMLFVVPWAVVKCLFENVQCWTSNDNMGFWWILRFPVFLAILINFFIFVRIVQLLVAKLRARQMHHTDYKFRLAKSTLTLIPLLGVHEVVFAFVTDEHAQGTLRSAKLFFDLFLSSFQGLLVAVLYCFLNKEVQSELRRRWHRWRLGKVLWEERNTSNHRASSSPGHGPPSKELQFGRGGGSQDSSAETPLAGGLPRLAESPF
Compound,"EC50 [1, 4] [nM]","Emax [1, 5] [%]","EC50 [1, 6] [nM]","EC50 [2, 4] [nM]","EC50 [2, 6] [nM]","Emax [3, 7] [%]","Emax ([3]; HEK293, cAMP, 37° C., 0.1% bovine casein, percent of maximal response to GLP-1(7-36)NH2, arithmetic mean) [%]","EC50 [3, 6] [nM]","Emax [1, 8] [%]","EC50 [1, 9] [nM]","EC50 [2, 9] [nM]","EC50 [3, 4] [nM]","Emax [3, 10] [%]","EC50 [3, 9] [nM]"
CCCCCCCCCCCC(=O)N[C@@H](CCC(=O)NCCOCCOCC(=O)NCCOCCOCC(=O)NCCCC[C@H](NC(=O)[C@H](CO)NC(=O)[C@@H]1CCCN1C(=O)[C@@H]1CCCN1C(=O)[C@@H]1CCCN1C(=O)[C@H](C)NC(=O)CNC(=O)[C@H](CO)NC(=O)[C@H](CO)NC(=O)[C@@H]1CCCN1C(=O)CNC(=O)CNC(=O)[C@H](CCC(=O)O)NC(=O)[C@@H](NC(=O)[C@H](CC(C)C)NC(=O)[C@](C)(Cc1ccc(O)cc1)NC(=O)[C@@H](CCC(=O)O)NC(=O)[C@@H](NC(=O)[C@H](Cc1ccccc1)NC(=O)[C@H](CCC(=O)O)NC(=O)C(C)(C)NC(=O)[C@H](CCC(N)=O)NC(=O)[C@H](C)NC(=O)[C@H](CCCCNC(=O)COCCOCCNC(=O)COCCOCCNC(=O)CC[C@H](NC(=O)CCCCCCCCCCC)C(=O)O)NC(=O)[C@H](CCCN)NC(=O)[C@H](CC(=O)O)NC(=O)[C@H](CC(C)C)NC(=O)[C@](C)(CC(C)C)NC(=O)[C@@H](NC(=O)[C@H](CO)NC(=O)[C@H](Cc1ccc(OC)cc1)NC(=O)[C@H](CC(=O)O)NC(=O)[C@H](CO)NC(=O)[C@@H](NC(=O)[C@](C)(Cc1ccccc1F)NC(=O)[C@@H](NC(=O)CNC(=O)[C@H](CCC(=O)O)NC(=O)C(C)(C)NC(=O)[C@@H](N)Cc1ccc(O)cc1)[C@@H](C)O)[C@@H](C)O)[C@@H](C)CC)[C@@H](C)CC)[C@@H](C)CC)C(N)=O)C(=O)O [Example 291],0.833,92.9,0.012,> 9950,> 9950,100,97.6,0.207,,,,,,
CC[C@H](C)[C@H](NC(=O)[C@H](CC(C)C)NC(=O)[C@](C)(Cc1ccc(O)cc1)NC(=O)[C@@H](CCC(=O)O)NC(=O)[C@@H](NC(=O)[C@H](Cc1ccccc1)NC(=O)[C@H](CCC(=O)O)NC(=O)C(C)(C)NC(=O)[C@H](CCC(N)=O)NC(=O)[C@H](C)NC(=O)[C@H](CCCCNC(=O)COCCOCCNC(=O)COCCOCCNC(=O)CC[C@H](NC(=O)CCCCCCCCCCCCC(=O)O)C(=O)O)NC(=O)[C@H](CCCN)NC(=O)[C@H](CC(=O)O)NC(=O)[C@H](CC(C)C)NC(=O)[C@](C)(CC(C)C)NC(=O)[C@@H](NC(=O)[C@H](CO)NC(=O)[C@H](Cc1ccncc1)NC(=O)[C@H](CC(=O)O)NC(=O)[C@H](CO)NC(=O)[C@@H](NC(=O)[C@](C)(Cc1ccccc1F)NC(=O)[C@@H](NC(=O)CNC(=O)[C@H](CCC(=O)O)NC(=O)C(C)(C)NC(=O)[C@@H](N)Cc1ccc(O)cc1)[C@@H](C)O)[C@@H](C)O)[C@@H](C)CC)[C@@H](C)CC)C(=O)N[C@@H](CCC(=O)O)C(=O)NCC(=O)NCC(=O)N[C@@H](CCCCNC(=O)COCCOCCNC(=O)COCCOCCNC(=O)CC[C@H](NC(=O)CCCCCCCCCCCCC(=O)O)C(=O)O)C(N)=O [Example 184] (H-Y[Aib]EGT[αMePhe(2-F)]TSD[4Pal]SI[αMeL]LD[Orn]K([AEEA-AEEA-γGlu-C14 diacid])AQ[Aib]EFI[dE][αMeY]LIEGGK([AEEA-AEEA-γGlu-C14 diacid])-NH2),2.46,81.2,,> 9950,,87.8,,,95.2 ± 1.13,0.0354,> 9950,119,96.8 ± 12,1.82
CC[C@H](C)[C@H](NC(=O)[C@H](CC(C)C)NC(=O)[C@H](Cc1ccc(O)cc1)NC(=O)[C@H](CCCCNC(=O)COCCOCCNC(=O)COCCOCCNC(=O)CC[C@H](NC(=O)CCCCCCCCCCCCC(=O)O)C(=O)O)NC(=O)[C@@H](NC(=O)[C@](C)(Cc1ccccc1)NC(=O)[C@H](CCC(=O)O)NC(=O)C(C)(C)NC(=O)[C@H](CCC(N)=O)NC(=O)[C@H](C)NC(=O)[C@H](CCCCNC(=O)COCCOCCNC(=O)COCCOCCNC(=O)CC[C@H](NC(=O)CCCCCCCCCCCCC(=O)O)C(=O)O)NC(=O)[C@H](CCCN)NC(=O)[C@H](CC(=O)O)NC(=O)[C@H](CC(C)C)NC(=O)[C@](C)(CC(C)C)NC(=O)[C@@H](NC(=O)[C@H](CO)NC(=O)[C@H](Cc1ccncc1)NC(=O)[C@H](CC(=O)O)NC(=O)[C@H](CO)NC(=O)[C@@H](NC(=O)[C@](C)(Cc1ccccc1F)NC(=O)[C@@H](NC(=O)CNC(=O)[C@H](CCC(=O)O)NC(=O)C(C)(C)NC(=O)[C@@H](N)Cc1ccc(O)cc1)[C@@H](C)O)[C@@H](C)O)[C@@H](C)CC)[C@@H](C)CC)C(=O)N[C@@H](CCC(=O)O)C(=O)NCC(=O)NCC(=O)N1CCC[C@H]1C(=O)N[C@@H](CO)C(=O)N[C@@H](CO)C(=O)NCC(=O)N[C@@H](C)C(=O)N1CCC[C@H]1C(=O)N1CCC[C@H]1C(=O)N1CCC[C@H]1C(=O)N[C@@H](CO)C(N)=O [Example 85] (H-Y[Aib]EGT[αMePhe(2-F)]TSD[4Pal]SI[αMeL]LD[Orn]K([AEEA-AEEA-γGlu-C14 diacid])AQ[Aib]E[αMeF]IK([AEEA-AEEA-γGlu-C14 diacid])YLIEGGPSSGAPPPS-NH2),,,,,,,,,91.7,0.0312,> 9950,,95.3,
CC[C@H](C)[C@H](NC(=O)[C@H](CCCN)NC(=O)[C@H](CC(=O)O)NC(=O)[C@H](CC(C)C)NC(=O)[C@](C)(CC(C)C)NC(=O)[C@@H](NC(=O)C(C)(C)NC(=O)[C@H](Cc1ccncc1)NC(=O)[C@H](CC(=O)O)NC(=O)[C@H](CO)NC(=O)[C@@H](NC(=O)[C@](C)(Cc1ccccc1F)NC(=O)[C@@H](NC(=O)CNC(=O)[C@H](CCC(=O)O)NC(=O)C(C)(C)NC(=O)[C@@H](N)Cc1ccc(O)cc1)[C@@H](C)O)[C@@H](C)O)[C@@H](C)CC)C(=O)N[C@@H](C)C(=O)N[C@@H](CCC(N)=O)C(=O)NC(C)(C)C(=O)N[C@@H](CCCCNC(=O)COCCOCCNC(=O)COCCOCCNC(=O)CC[C@H](NC(=O)CCCCCCCCCCCCC(=O)O)C(=O)O)C(=O)N[C@@H](Cc1ccccc1)C(=O)N[C@H](C(=O)N[C@H](CCC(=O)O)C(=O)N[C@@](C)(Cc1ccc(O)cc1)C(=O)N[C@@H](CC(C)C)C(=O)N[C@H](C(=O)N[C@@H](CCCCNC(=O)COCCOCCNC(=O)COCCOCCNC(=O)CC[C@H](NC(=O)CCCCCCCCCCCCC(=O)O)C(=O)O)C(=O)NCC(=O)NCC(=O)N1CCC[C@H]1C(=O)N[C@@H](CO)C(=O)N[C@@H](CO)C(=O)NCC(=O)N[C@@H](C)C(=O)N1CCC[C@H]1C(=O)N1CCC[C@H]1C(=O)N1CCC[C@H]1C(=O)N[C@@H](CO)C(N)=O)[C@@H](C)CC)[C@@H](C)CC [Example 220],11.6,83.5,,> 9950,,110,,,91.6,0.0237,> 9950,150,87.6,0.535
